The source made the active and inactive calls. The rule behind the calls is not given here.
Tests used:
[1] = target: Ephrin type-B receptor 2 (Homo sapiens) (UniProt P29323); experiment: Inhibition of recombinant human GST-tagged EPHB2 (616-884 residues) expressed in insect cells at 2 uM using Tyr 02 as substrate measured after 1 hr by Z'-LYTE assay relative to control; conditions: Insect cell
[2] = target: Mitogen-activated protein kinase 10 (Homo sapiens) (UniProt P53779); experiment: Inhibition of recombinant human full length GST-tagged MAPK10 expressed in insect cells at 2 uM using Ser/Thr 04 as substrate measured after 1 hr by Z'-LYTE assay relative to control; conditions: Insect cell
[3] = target: Tyrosine-protein kinase JAK3 (Homo sapiens) (UniProt P52333); experiment: Inhibition of recombinant human GST-tagged JAK3 (781-1124 residues) expressed in insect cells at 2 uM using Tyr 06 as substrate measured after 1 hr by Z'-LYTE assay relative to control; conditions: Insect cell
mTORC2 (Homo sapiens) = mTORC2 (Homo sapiens) (UniProt P42345+Q6R327+Q9BVC4+Q9BPZ7); conditions: PC3MM2, dose 0.1-1 µM, time 6.0 hrs
[4] = target: Macrophage colony-stimulating factor 1 receptor (Homo sapiens) (UniProt P07333); experiment: Inhibition of recombinant human His-tagged CSF1R (538-910 residues) expressed in baculovirus expression system at 2 uM using Tyr 01 as substrate measured after 1 hr by Z'-LYTE assay relative to control
Chain of Macrophage colony-stimulating factor 1 receptor (Homo sapiens) (P07333 whole entry, the tested form may be a part): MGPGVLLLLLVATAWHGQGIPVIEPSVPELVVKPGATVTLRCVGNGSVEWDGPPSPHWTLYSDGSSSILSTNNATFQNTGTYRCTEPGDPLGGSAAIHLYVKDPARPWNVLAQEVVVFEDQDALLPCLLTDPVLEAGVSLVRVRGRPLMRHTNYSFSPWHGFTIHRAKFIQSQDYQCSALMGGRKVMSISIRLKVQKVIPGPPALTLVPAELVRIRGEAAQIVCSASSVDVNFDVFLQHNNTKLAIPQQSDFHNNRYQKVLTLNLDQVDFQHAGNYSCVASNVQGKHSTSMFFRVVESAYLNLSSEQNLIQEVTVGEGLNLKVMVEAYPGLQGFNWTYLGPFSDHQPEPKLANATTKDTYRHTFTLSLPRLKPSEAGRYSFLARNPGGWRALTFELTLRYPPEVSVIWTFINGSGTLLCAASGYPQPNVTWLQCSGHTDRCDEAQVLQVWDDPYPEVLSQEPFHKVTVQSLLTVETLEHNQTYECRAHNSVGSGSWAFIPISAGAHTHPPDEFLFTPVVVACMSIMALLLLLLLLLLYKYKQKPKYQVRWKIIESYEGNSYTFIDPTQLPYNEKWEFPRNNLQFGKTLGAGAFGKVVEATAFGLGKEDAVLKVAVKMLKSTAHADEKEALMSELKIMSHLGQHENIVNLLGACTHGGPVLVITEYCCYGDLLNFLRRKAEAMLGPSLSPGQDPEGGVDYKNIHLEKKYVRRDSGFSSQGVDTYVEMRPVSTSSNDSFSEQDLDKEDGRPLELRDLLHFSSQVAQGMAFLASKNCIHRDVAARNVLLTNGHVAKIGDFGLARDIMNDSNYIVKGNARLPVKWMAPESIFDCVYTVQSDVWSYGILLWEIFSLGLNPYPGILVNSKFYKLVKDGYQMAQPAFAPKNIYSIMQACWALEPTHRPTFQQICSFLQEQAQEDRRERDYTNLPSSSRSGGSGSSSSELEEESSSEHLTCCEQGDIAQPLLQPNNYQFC

[5] = target: Serine/threonine-protein kinase Chk2 (Homo sapiens) (UniProt O96017); experiment: Inhibition of recombinant human full-length His-tagged CHEK2 expressed in baculovirus expression system at 2 uM using Ser/Thr 07 as substrate measured after 1 hr by Z'-LYTE assay relative to control
[6] = target: Tyrosine-protein kinase ZAP-70 (Homo sapiens) (UniProt P43403); experiment: Inhibition of recombinant human full length His-tagged ZAP70 expressed in baculovirus expression system at 2 uM using […] as substrate measured after 1 hr by Z'-LYTE assay relative to control
[7] = target: Casein kinase I isoform delta (Homo sapiens) (UniProt P48730); experiment: Inhibition of recombinant human full-length GST-tagged CSNK1D expressed in insect cells at 2 uM using Ser/Thr 11 as substrate measured after 1 hr by Z'-LYTE assay relative to control; conditions: Insect cell
Chain of Casein kinase I isoform delta (Homo sapiens) (P48730 whole entry, looked up, the tested form may be a part, canonical isoform): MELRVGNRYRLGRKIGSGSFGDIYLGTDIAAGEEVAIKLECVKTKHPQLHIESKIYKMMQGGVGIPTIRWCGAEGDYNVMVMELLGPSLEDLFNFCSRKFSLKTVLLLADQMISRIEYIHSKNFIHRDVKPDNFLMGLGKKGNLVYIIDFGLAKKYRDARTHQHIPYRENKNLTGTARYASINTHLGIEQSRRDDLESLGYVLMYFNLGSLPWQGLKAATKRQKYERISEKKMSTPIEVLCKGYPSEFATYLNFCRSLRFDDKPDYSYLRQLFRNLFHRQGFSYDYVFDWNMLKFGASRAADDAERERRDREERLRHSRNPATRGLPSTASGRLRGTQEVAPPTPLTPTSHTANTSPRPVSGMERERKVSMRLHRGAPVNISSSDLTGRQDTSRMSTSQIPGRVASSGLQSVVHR

[8] = target: Serine/threonine-protein kinase Nek7 (Homo sapiens) (UniProt Q8TDX7); experiment: Inhibition of recombinant human His-tagged NEK7 (8-313 residues) expressed in insect cells at 2 uM using Ser/Thr 22 as substrate measured after 1 hr by Z'-LYTE assay relative to control; conditions: Insect cell
Chain of Serine/threonine-protein kinase Nek7 (Homo sapiens) (Q8TDX7 whole entry, looked up, the tested form may be a part): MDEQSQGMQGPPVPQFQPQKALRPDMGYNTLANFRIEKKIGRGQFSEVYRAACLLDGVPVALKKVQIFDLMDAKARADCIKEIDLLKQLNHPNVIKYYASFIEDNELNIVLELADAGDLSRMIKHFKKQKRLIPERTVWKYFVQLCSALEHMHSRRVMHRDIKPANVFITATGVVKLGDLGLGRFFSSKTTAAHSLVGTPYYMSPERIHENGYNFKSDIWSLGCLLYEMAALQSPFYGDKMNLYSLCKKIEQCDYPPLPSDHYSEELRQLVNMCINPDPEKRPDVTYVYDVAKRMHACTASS

[9] = target: Serine/threonine-protein kinase pim-1 (Homo sapiens) (UniProt P11309); experiment: Inhibition of recombinant human full length His-tagged PIM1 expressed in insect cells at 2 uM using Ser/Thr 07 as substrate measured after 1 hr by Z'-LYTE assay relative to control; conditions: Insect cell
Chain of Serine/threonine-protein kinase pim-1 (Homo sapiens) (P11309 whole entry, looked up): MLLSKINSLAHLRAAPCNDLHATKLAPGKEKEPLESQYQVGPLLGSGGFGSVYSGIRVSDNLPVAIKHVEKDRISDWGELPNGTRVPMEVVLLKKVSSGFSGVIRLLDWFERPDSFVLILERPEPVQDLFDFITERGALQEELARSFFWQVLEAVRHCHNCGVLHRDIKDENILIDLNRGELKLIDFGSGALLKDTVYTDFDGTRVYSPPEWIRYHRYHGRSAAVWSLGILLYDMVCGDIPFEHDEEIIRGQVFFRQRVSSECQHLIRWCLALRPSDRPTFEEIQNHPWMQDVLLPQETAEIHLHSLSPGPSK

[10] = tested on: Tyrosine-protein kinase ABL1 (Homo sapiens), P00519 [G250E]; experiment: Inhibition of recombinant human full-length His-tagged ABL1 G250E mutant expressed in insect cells at 2 uM using Tyr 02 as substrate measured after 1 hr by Z'-LYTE assay relative to control; conditions: Insect cell
[11] = tested on: Hepatocyte growth factor receptor (Homo sapiens), P08581 [M1250T]; experiment: Inhibition of recombinant human His-tagged MET M1250T mutant (956-1390 residues) expressed in insect cells at 2 uM using Tyr 06 as substrate measured after 1 hr by Z'-LYTE assay relative to control; conditions: Insect cell
[12] = target: Serine/threonine-protein kinase 4 (Homo sapiens) (UniProt Q13043); experiment: Inhibition of recombinant human full length GST-tagged STK4 expressed in insect cells at 2 uM using Ser/Thr 07 as substrate measured after 1 hr by Z'-LYTE assay relative to control; conditions: Insect cell
Chain of Serine/threonine-protein kinase 4 (Homo sapiens) (Q13043 whole entry): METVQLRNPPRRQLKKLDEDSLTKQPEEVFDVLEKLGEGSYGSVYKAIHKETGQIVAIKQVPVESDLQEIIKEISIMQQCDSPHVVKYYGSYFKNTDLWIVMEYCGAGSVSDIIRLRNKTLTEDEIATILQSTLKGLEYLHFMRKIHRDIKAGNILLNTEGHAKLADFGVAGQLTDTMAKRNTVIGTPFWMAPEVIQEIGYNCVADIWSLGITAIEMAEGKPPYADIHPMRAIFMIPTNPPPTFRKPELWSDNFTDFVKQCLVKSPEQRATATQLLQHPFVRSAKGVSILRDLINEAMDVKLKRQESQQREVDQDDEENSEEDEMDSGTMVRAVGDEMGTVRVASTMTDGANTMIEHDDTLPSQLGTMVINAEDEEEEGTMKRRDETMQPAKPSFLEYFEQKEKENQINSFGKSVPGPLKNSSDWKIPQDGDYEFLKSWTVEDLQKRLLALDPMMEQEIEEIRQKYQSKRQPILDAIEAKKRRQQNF

[13] = target: Serine/threonine-protein kinase PAK 2 (Homo sapiens) (UniProt Q13177); experiment: Inhibition of recombinant human full length GST-tagged PAK2 expressed in insect cells at 2 uM using Ser/Thr 20 as substrate measured after 1 hr by Z'-LYTE assay relative to control; conditions: Insect cell
[14] = target: Dual specificity mitogen-activated protein kinase kinase 1 (Homo sapiens) (UniProt Q02750); experiment: Inhibition of recombinant human full length His-tagged MAP2K1 expressed in baculovirus expression system at 2 uM using Ser/Thr 03 as substrate measured after 1 hr by Z'-LYTE assay relative to control
Chain of Dual specificity mitogen-activated protein kinase kinase 1 (Homo sapiens) (Q02750 whole entry, the tested form may be a part): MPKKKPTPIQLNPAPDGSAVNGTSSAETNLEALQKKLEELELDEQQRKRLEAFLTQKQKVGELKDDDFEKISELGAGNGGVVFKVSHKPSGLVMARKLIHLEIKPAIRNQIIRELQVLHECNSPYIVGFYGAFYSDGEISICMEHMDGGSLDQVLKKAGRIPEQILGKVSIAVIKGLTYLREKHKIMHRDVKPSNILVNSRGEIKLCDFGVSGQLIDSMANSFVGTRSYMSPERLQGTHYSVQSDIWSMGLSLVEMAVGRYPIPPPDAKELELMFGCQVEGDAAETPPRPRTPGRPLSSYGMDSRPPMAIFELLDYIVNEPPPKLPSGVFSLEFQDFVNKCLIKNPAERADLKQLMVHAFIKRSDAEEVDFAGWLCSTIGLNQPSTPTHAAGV

[15] = target: Ephrin type-A receptor 5 (Homo sapiens) (UniProt P54756); experiment: Inhibition of recombinant human GST-tagged EPHA5 (595-1037 residues) expressed in insect cells at 2 uM using Tyr 01 as substrate measured after 1 hr by Z'-LYTE assay relative to control; conditions: Insect cell
HT-29 = experiment: Induction of apoptosis in human HT-29 cells assessed as increase in PARP cleavage at 0.3 to 3 micromol/L incubated for 48 hrs by Western blot analysis; type: functional, cell-based; conditions: dose 0.3-3 µmol/L
A498 = experiment: Antiproliferative activity against human A498 cells assessed as reduction in cell size at 1 micromol/L incubated for 48 hrs by Flow cytometry analysis relative to control; type: functional; set-up: scale not given: the % may be the effect or the level left; conditions: dose 1 µmol/L, at 1 µM
[16] = target: Insulin receptor (Homo sapiens) (UniProt P06213); experiment: Inhibition of recombinant human GST-tagged INSR (1011-1382 residues) expressed in insect cells at 2 uM using Tyr 01 as substrate measured after 1 hr by Z'-LYTE assay relative to control; conditions: Insect cell
[17] = target: Protein kinase C eta type (Homo sapiens) (UniProt P24723); experiment: Inhibition of recombinant human PRKCH at 2 uM using Ser/Thr 07 as substrate measured after 1 hr by Z'-LYTE assay relative to control
Chain of Protein kinase C eta type (Homo sapiens) (P24723 whole entry): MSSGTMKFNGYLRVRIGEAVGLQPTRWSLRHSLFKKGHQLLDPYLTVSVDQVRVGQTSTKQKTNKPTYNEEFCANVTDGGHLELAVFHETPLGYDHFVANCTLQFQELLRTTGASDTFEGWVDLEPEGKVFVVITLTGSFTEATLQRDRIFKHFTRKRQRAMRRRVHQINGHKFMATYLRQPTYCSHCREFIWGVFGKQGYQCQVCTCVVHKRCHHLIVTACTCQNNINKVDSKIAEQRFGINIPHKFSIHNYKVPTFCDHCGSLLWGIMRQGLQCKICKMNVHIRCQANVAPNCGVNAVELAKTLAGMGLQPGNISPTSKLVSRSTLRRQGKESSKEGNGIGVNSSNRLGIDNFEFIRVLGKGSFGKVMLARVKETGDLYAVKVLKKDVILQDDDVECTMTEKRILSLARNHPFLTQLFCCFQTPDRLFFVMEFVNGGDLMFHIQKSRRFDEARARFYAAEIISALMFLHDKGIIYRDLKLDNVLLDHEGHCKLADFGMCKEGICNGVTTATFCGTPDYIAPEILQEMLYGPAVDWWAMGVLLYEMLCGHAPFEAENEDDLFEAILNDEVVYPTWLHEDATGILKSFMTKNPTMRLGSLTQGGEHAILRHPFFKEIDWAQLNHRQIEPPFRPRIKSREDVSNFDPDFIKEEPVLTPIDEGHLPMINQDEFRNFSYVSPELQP

[18] = target: SRSF protein kinase 1 (Homo sapiens) (UniProt Q96SB4); experiment: Inhibition of recombinant human full length His-tagged SRPK1 expressed in insect cells at 2 uM using Ser/Thr 18 as substrate measured after 1 hr by Z'-LYTE assay relative to control; conditions: Insect cell
Chain of SRSF protein kinase 1 (Homo sapiens) (Q96SB4 whole entry): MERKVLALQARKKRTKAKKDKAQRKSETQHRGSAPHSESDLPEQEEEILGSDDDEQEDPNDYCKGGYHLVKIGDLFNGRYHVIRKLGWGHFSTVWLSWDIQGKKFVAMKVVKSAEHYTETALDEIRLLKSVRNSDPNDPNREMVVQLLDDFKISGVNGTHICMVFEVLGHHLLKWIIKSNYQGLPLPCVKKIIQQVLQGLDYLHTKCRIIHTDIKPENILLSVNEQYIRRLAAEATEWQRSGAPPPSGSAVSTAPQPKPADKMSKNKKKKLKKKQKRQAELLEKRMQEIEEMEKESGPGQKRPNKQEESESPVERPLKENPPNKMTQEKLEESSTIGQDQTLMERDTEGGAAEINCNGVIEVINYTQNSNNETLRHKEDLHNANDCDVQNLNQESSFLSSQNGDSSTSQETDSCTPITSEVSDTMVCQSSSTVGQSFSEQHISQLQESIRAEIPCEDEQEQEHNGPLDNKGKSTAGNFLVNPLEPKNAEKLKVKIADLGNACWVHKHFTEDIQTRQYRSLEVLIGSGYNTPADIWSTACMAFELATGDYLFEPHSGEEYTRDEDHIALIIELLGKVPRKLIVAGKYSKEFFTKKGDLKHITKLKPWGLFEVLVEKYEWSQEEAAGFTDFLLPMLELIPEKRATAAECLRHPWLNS

[19] = target: cGMP-dependent protein kinase 1 (Homo sapiens) (UniProt Q13976); experiment: Inhibition of recombinant human full length GST-tagged PRKG1 expressed in baculovirus expression system at 2 uM using Ser/Thr 01 as substrate measured after 1 hr by Z'-LYTE assay relative to control
[20] = target: Serine/threonine-protein kinase TBK1 (Homo sapiens) (UniProt Q9UHD2); experiment: Inhibition of recombinant human full length GST-tagged TBK1 expressed in insect cells at 2 uM using Ser/Thr 05 as substrate measured after 1 hr by Z'-LYTE assay relative to control; conditions: Insect cell
Chain of Serine/threonine-protein kinase TBK1 (Homo sapiens) (Q9UHD2 whole entry): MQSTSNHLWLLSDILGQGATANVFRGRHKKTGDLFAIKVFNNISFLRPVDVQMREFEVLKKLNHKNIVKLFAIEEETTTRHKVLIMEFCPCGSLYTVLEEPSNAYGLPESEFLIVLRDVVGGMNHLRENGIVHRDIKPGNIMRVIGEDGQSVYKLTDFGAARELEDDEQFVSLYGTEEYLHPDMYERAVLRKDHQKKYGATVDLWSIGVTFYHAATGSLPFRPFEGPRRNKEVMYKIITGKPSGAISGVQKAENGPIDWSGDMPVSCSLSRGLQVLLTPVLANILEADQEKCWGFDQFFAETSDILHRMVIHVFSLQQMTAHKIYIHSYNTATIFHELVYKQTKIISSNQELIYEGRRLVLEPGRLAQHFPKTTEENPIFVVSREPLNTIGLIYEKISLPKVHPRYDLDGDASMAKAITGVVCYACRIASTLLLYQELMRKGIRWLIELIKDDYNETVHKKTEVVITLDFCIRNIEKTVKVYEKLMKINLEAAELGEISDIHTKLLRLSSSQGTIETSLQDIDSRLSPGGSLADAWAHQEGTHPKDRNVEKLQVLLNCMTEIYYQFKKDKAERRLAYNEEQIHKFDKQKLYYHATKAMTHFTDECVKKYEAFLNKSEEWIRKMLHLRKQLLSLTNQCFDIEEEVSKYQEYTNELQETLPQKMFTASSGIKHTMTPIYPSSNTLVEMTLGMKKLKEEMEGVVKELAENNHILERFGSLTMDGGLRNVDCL

MDA-MB-361 [21] = experiment: Antitumor activity against human MDA-MB-361 cells assessed as block the accumulation of HIF-1alpha in low oxygen at 0.3 micromol/L incubated for 24 hrs by immunoblot analysis; type: functional, cell-based; conditions: dose 0.3 µmol/L
MDA-MB-361 [22] = experiment: Antiproliferative activity against human MDA-MB-361 cells assessed as cell growth inhibition incubated for 24 hrs by MTS assay; type: functional, cell-based; conditions: MDA-MB-361, 24 h

CNC(=O)Nc1ccc(-c2nc(N3CC4CCC(C3)O4)c3cnn(C4CCC5(CC4)OCCO5)c3n2)cc1
inhibition [1]: 6% | inhibition [2]: 14% | inhibition [3]: 0% | inhibition (mTORC2 (Homo sapiens)): inactive | inhibition [4]: 7% | inhibition [5]: 3% | inhibition [6]: 7% | inhibition [7]: 2% | inhibition [8]: -3% | inhibition [9]: 1% | inhibition [10]: 3% | inhibition [11]: 1% | inhibition [12]: 12% | inhibition [13]: 15% | inhibition [14]: 3% | inhibition [15]: 2% | Activity (HT-29): inactive | Activity (A498): 83% | inhibition [16]: 4% | inhibition [17]: 14% | inhibition [18]: 2% | inhibition [19]: 1% | inhibition [20]: 2% | Activity (MDA-MB-361 [21]): Active | IC50 (MDA-MB-361 [22]): 0.024 µM

From ChEMBL document CHEMBL5696439 (Cancer Res, 2010)
